Experimental data: ChEMBL document CHEMBL3091327, “3',4'-Bis-difluoromethoxycinnamoylanthranilate (FT061): an orally-active antifibrotic agent that reduces albuminuria in a rat model of progressive diabetic nephropathy” (Bioorg Med Chem Lett, 2013)
Blank lines part the entries; values can stand above or below the compound they belong to. Calls of active or inactive are those of the source. No cut-off for these calls is given here.

What was measured:
[1] = Antifibrotic activity in rat renal mesangial cells assessed as inhibition of TGF-beta1-induced [3H]-proline incorporation into collagen at 30 uM treated 4 hrs before TGF-beta1 addition measured after 44 hrs by liquid scintillation counting; assay type: functional, cell-based
[2] = Antifibrotic activity in rat renal mesangial cells assessed as inhibition of TGF-beta1-induced [3H]-proline incorporation into collagen at 10 uM treated 4 hrs before TGF-beta1 addition measured after 44 hrs by liquid scintillation counting; assay type: functional, cell-based
[3] = Drug level in Sprague-Dawley rat urine at 5 mg/kg, iv; assay type: ADME, organism-based; design: dose 5 mg/kg, route intravenous; details: read-out: Drug uptake
[4] = test system: Liver microsome; experiment: Metabolic stability in human liver microsomes at 1 uM after 60 mins by LC/MS analysis in presence of NADPH; assay type: ADME; details: 1 h
[5] = Volume of distribution at steady state in Sprague-Dawley rat at 5 mg/kg, iv; assay type: ADME, organism-based; design: dose 5 mg/kg, route intravenous; details: in vivo, read-out: Vdss
[6] = test system: Rattus norvegicus; experiment: (§1) Apparent half life in Sprague-Dawley rat at 20 mg/kg, po; assay type: ADME, organism-based; design: dose 20 mg/kg, route oral; details: in vivo
[7] = test system: Rattus norvegicus; experiment: (§2) Tmax in Sprague-Dawley rat at 20 mg/kg, po; assay type: ADME, organism-based; design: dose 20 mg/kg, route oral; details: in vivo
[8] = test system: Rattus norvegicus; experiment: Hepatotoxicity in Sprague-Dawley rat assessed as effect on serum bilirubin level at 50 to 1000 mg/kg, po bid for 2 weeks; assay type: toxicity, organism-based; design: dose 50-1000 mg/kg, route oral; details: in vivo, 336 h
[9] = test system: Rattus norvegicus; experiment: Reduction of albuminuria in (mRen-2)27 rat streptozotocin-induced diabetic nephropathy model assessed as reduction of albumin level in urine at 200 mg/kg, po qd for 8 weeks administered 8 weeks post-streptozotocin treatment by radioimmunoassay; assay type: functional, organism-based; design: dose 200 mg/kg
[10] = Apparent half life in Sprague-Dawley rat at 5 mg/kg, iv; assay type: ADME, organism-based; design: dose 5 mg/kg, route intravenous; details: in vivo, read-out: t1/2(app) (converted)
[11] = test system: Rattus norvegicus; experiment: Renal toxicity in Sprague-Dawley rat assessed as effect on serum urate level at 50 to 1000 mg/kg, po bid for 2 weeks; assay type: organism-based; design: dose 50-1000 mg/kg, route oral; details: in vivo, 336 h
[12] = test system: Rattus norvegicus; experiment: Renal toxicity in Sprague-Dawley rat assessed as effect on serum creatinine level at 50 to 1000 mg/kg, po bid for 2 weeks; assay type: organism-based; design: dose 50-1000 mg/kg, route oral; details: in vivo, 336 h
[13] = Plasma clearance in Sprague-Dawley rat at 5 mg/kg, iv; assay type: ADME, organism-based; design: dose 5 mg/kg, route intravenous
[14] = Oral bioavailability in Sprague-Dawley rat at 20 mg/kg; assay type: ADME, organism-based; details: in vivo
[15] = test system: Rattus norvegicus; experiment: (§3) Cmax in Sprague-Dawley rat at 20 mg/kg, po; assay type: ADME, organism-based; design: dose 20 mg/kg, route oral; details: in vivo
[16] = test system: Rattus norvegicus; experiment: Hepatotoxicity in Sprague-Dawley rat assessed as effect on serum ALT level at 50 to 1000 mg/kg, po bid for 2 weeks; assay type: toxicity, organism-based; design: dose 50-1000 mg/kg, route oral; details: in vivo, 336 h
[17] = Drug level in Sprague-Dawley rat urine at 20 mg/kg, po; assay type: ADME, organism-based; design: dose 20 mg/kg, route oral; details: read-out: Drug uptake
[18] = AUC (0 to infinity) in Sprague-Dawley rat at 5 mg/kg, iv; assay type: ADME, organism-based; design: time infinity, dose 5 mg/kg, route intravenous; details: plasma
[19] = test system: Rattus norvegicus; experiment: (§4) AUC (0 to infinity) in Sprague-Dawley rat at 20 mg/kg, po; assay type: ADME, organism-based, Plasma; design: dose 20 mg/kg, route oral, time infinity; details: in vivo
[20] = as §1; assay type: ADME, organism-based; design: dose 20 mg/kg, route oral; details: Sprague-Dawley, in vivo
[21] = as §2; assay type: ADME, organism-based; design: dose 20 mg/kg, route oral; details: Sprague-Dawley, in vivo
[22] = as §3; assay type: ADME, organism-based; design: dose 20 mg/kg, route oral; details: Sprague-Dawley, in vivo
[23] = test system: Rattus norvegicus; experiment: Reduction of albuminuria in (mRen-2)27 rat streptozotocin-induced diabetic nephropathy model assessed as reduction of albumin level in urine at 400 mg/kg, po qd for 8 weeks administered 8 weeks post-streptozotocin treatment by radioimmunoassay; assay type: functional, organism-based; design: dose 400 mg/kg
[24] = as §4; assay type: ADME, organism-based, Plasma; design: dose 20 mg/kg, route oral, time infinity; details: Sprague-Dawley, plasma

Structure (SMILES): O=C(/C=C/c1ccc2c(c1)OC(F)(F)O2)Nc1ccccc1C(=O)O
inhibition [1]: 0%

Structure (SMILES): Nc1ccccc1NC(=O)/C=C/c1ccc(OC(F)F)c(OC(F)F)c1
inhibition [1]: 79% | inhibition [2]: 57%

Structure (SMILES): COc1cc(/C=C/C(=O)Nc2ccccc2C(=O)O)ccc1OC(F)F
inhibition [1]: 70% | inhibition [2]: 20%

Structure (SMILES): COc1ccc(/C=C/C(=O)Nc2ccccc2C(=O)O)cc1OC(F)(F)F
inhibition [1]: 100% | inhibition [2]: 92%

Structure (SMILES): C/C(=C\c1ccc(OC(F)F)c(OC(F)F)c1)C(=O)Nc1ccccc1C(=O)O
inhibition [2]: 100%

Structure (SMILES): C#CCOc1cc(/C=C/C(=O)Nc2ccccc2C(=O)O)ccc1OC(F)F
inhibition [1]: 100% | inhibition [2]: 73%

Structure (SMILES): O=C(/C=C/c1ccc(OC(F)F)c(OC(F)F)c1)Nc1ccc(Br)cc1C(=O)O
inhibition [2]: 100%

Structure (SMILES): O=C(/C=C/c1ccc(OC(F)(F)C(F)F)cc1)Nc1ccccc1C(=O)O
inhibition [2]: 84%

Structure (SMILES): O=S(=O)(/C=C/c1ccc(OC(F)F)c(OC(F)F)c1)Nc1ccccc1
inhibition [2]: 0%

Structure (SMILES): C#CCOc1cc(/C=C/C(=O)Nc2ccccc2C(=O)O)ccc1OC
inhibition [1]: 55% | inhibition [2]: 20%

Structure (SMILES): C/C(=C\C(=O)Nc1ccccc1C(=O)O)c1ccc(OC(F)F)c(OC(F)F)c1
inhibition [2]: 100%

Structure (SMILES): COc1cc(/C=C/C(=O)Nc2ccccc2C(=O)O)cc(OC)c1OC(F)F
inhibition [1]: 80% | inhibition [2]: 24%

dose excreted [3]: 3.3% | Stability [4]: Stable | Vd [5]: 0.1 L/kg | t1/2(app) [6]: 5.4 h | Tmax [7]: 2.5 h | half-life [10]: 7.8 h | clearance [13]: 0.2 mL/min/kg | bioavailability [14]: 73% | Cmax [15]: 200 µM | dose excreted [17]: 1.7% | AUC(0-inf) [18]: 894 µM·h | AUC [19]: 2691 µM·h
Structure (SMILES): O=C(/C=C/c1ccc(OC(F)F)c(OC(F)F)c1)Nc1ccccc1C(=O)O
inhibition [1]: 100% | Activity [8]: Non-toxic | Activity [9]: Active | Activity [11]: Non-toxic | Activity [12]: Non-toxic | Activity [16]: Non-toxic | inhibition [2]: 60%

dose excreted [3]: 2.4% | Vd [5]: 0.3 L/kg | half-life [20]: 3.3 h | Tmax [21]: 1.75 h | half-life [10]: 3.1 h | clearance [13]: 2 mL/min/kg | bioavailability [14]: 125% | Cmax [22]: 118 µM | dose excreted [17]: 1.9% | AUC(0-inf) [18]: 110 µM·h | AUC(0-inf) [24]: 652 µM·h
Structure (SMILES): COc1ccc(/C=C/C(=O)Nc2ccccc2C(=O)O)cc1OC [TRANILAST]
inhibition [1]: 40% | Activity [23]: Active | inhibition [2]: 15%

Structure (SMILES): O=C(/C=C/c1ccc(OC(F)(F)F)c(F)c1)Nc1ccccc1C(=O)O
inhibition [2]: 55%

Structure (SMILES): O=C(O)c1ccccc1NC(=O)C1CC1c1ccc(OC(F)F)c(OC(F)F)c1 (centres undefined)
inhibition [1]: 90% | inhibition [2]: 70%
